Key:
[1] = Change in body composition of dogs over 90 days; format: in vivo, dog; conditions: 90 day treatment period
Excerpt: Table 4 illustrates the change in body composition of dogs fed a control diet compared with dogs fed a control plus fish oil and a control plus lipoic acid.

[2] = test system: GSH:GSSG ratio; assay: Change in GSH:GSSG ratio in blood lymphocytes of dogs fed dl-alpha-lipoic acid in extruded food; format: in vivo, dog
Excerpt: (§1) Thirty (30) adult, random source, dogs were utilized for this study. Dogs were at least 10 months of age, not pregnant, not lactating and of reasonable body weight prior to start of test. Animals were randomized into 5 groups for dietary treatment with 3 males and 3 females per each group.
All dogs were fed a control food (0 ppm dl-alpha-lipoic acid added) that met or exceeded all recommendations for nutrients as proposed by the American Association of Feed Control Officials (AAFCO 2000) during a 2 week prefeeding period (Table 2). Following the prefeeding period dogs were randomized into 5 treatment groups with one of the following dl-alpha lipoic acid target-inclusions (dry matter basis): 0 ppm, 150 ppm, 1500 ppm, 3000 ppm, 4500 ppm. In all diets, control and alpha lipoic acid, Vitamin E was added and was present at a level of 600-1000 International Units and Vitamin C was added at levels of 100-200 ppm.
Blood was collected aseptically for complete blood count, and blood biochemistry analysis 2 weeks prior to start and again at 0, 28, 56, 84, 112, 140 and 168 days of the study. In addition, 15 ml of whole blood was collected for isolation of lymphocytes at day 0, 28 and 84 of the dietary intervention.
Heparinzed whole blood was layered onto a 50 ml Accuspin conical centrifuge tube (Sigma Chemical) and an equal volume of Phosphate buffered saline (PBS) was added. Samples were centrifuged at 700 g for 30 minutes without brake. The monocyte layer was harvested, transferred to a 15 ml conical centrifuge tube, resuspended in 1-3 ml of PB, and centrifuged as before (First wash). A second wash was performed as the first wash. Finally, cells were harvested and suspended in perchloric acid (10% w/v) and frozen at −70° C. until analysis.
Samples were transferred from −70° C. freezer into a cooler with dry ice in it. Vials were centrifuged at 12,000 rpm for 5 minutes in a refrigerated centrifuge. An aliquot of supernatant for glutathione (GSH) analysis was transferred to a conical test tube.
Derivatization of the acid soluble extracts was by the method of Reed and coworkers (Fariss et al) as modified by Jones (Jones et al)
Briefly, 150 μL extract or external standards were added into a 1.5 ml Eppendorf tube followed by addition of 20 μγ-Glu-Glu internal standard and 50 μL IAA added followed by mixing. The solution was adjusted to pH about 10 (purple color) by using KOH—KHCO3 working solution. Solutions were incubated 1 hr. under room temperature in the dark. Sanger's reagent was added at the same volume as of the total volume and the solution was incubated overnight (20 hrs) in the dark at room temperature.
After incubation, the solution was centrifuged at 12000 rpm for 5 minutes with the supernatant transferred into another 1.5 ml eppendorf tube.
Solvents and separation conditions were as described (Fariss, Jones). Levels of GSH and GSSG were quantified relative to authentic standards. Gamma-glutamyl-glutamate was used as an internal standard to assess derivatization efficiency.
Comparison of values for clinical chemistry, hematology and body weights vs baseline were analyzed by way of paired t-test on SAS for windows with significance set at P<0.05. Means of values at each measured time point were separated by a one-way ANOVA with significance set at P<0.05. The difference in GSH:GSSG between day 84 and baseline were analyzed between groups by way of SAS for windows in a one-way ANOVA with significance set at P<0.05.

[3] = Six-month feeding safety study in dogs (body weight, physical examination, serum biochemistry, hematology); format: in vivo
Excerpt: as §1
All dogs were fed a control food (0 ppm dl-alpha-lipoic acid added) that met or exceeded all recommendations for nutrients as proposed by the American Association of Feed Control Officials (AAFCO 2000) during a 2 week prefeeding period (Table 2). […]
Test foods were the sole source of nutrients except for water. […] After dogs were selected and initial body weights taken, a food dose was calculated for each dog based on the expected ME of the food. Initial food dose calculations were based on the maintenance energy requirement (MER) for the dog modified by a factor to account for normal activity as calculated by the following formula: […]
Dogs were weighed weekly and had food doses adjusted as needed in order to feed enough food to maintain their optimal body weight. Optimal body weight was determined to be 3 on a 5 point scale. […] All measures of body weight and food intake were recorded. […]
Comparison of values for clinical chemistry, hematology and body weights vs baseline were analyzed by way of paired t-test on SAS for windows with significance set at P<0.05. […]

O=C(O)CCCCC1CCSS1 (racemic) [DL-Alpha Lipoic Acid, dl-alpha-lipoic acid]
Change in weight compared with control and fish oil diets [1]: greatest change in weight
Difference in GSH:GSSG ratio - day 0 to day 84 ([2]; dogs, 150 ppm inclusion in extruded food): 70 +/− 20
Difference in GSH:GSSG ratio - day 0 to day 84 ([2]; dogs, 1,500 ppm inclusion in extruded food): 24 +/− 7
Difference in GSH:GSSG ratio - day 0 to day 84 ([2]; dogs, 3,000 ppm inclusion in extruded food): 10 +/− 4
Difference in GSH:GSSG ratio - day 0 to day 84 ([2]; dogs, 4,500 ppm inclusion in extruded food): 50 +/− 36
Effect on reduced glutathione (GSH) to oxidized glutathione (GSSG) ratio ([2]; dogs, chronic feeding in diet): improves
Safety of chronic feeding in diet ([3]; dog, in vivo): safe and effective
Body weight ([3]; dogs, 4500 ppm inclusion group, 6 months): some weight loss occurred initially
